Measured values: patent EP3315130A1, “HYALURONIC ACID COMPOSITION INCLUDING MEPIVACAINE” (Laboratoires Vivacy, priority 2016, dated 2018)

Key:
oedème = assay: Clinical evaluation of occurrence and severity of oedema after injection of hyaluronic acid compositions; parameters: species or system patients; details: human, in vivo
Method: (§1) Deux types de composition aqueuse à base d'acide hyaluronique (concentration 20 mg/g) sont préparés.
(§2) Toutes les compositions sont issues d'un mélange monophasique tel que celui décrit dans la demande de brevet WO 2009/071697 au nom de la demanderesse, et comprennent du mannitol (concentration 35 mg/g).
(§3) Deux groupes A et B de 64 patients chacun sont formés (128 patients au total).
(§4) Le groupe B est injecté au niveau du sillon naso-génien au moyen de la composition aqueuse à base d'acide hyaluronique comprenant du mannitol et de la mépivacaïne

ecchymose = assay: Clinical evaluation of occurrence and severity of ecchymosis after injection of hyaluronic acid compositions; parameters: species or system patients; details: human, in vivo
Method: as §1, §2, §3, §4

## mépïvacaïne
oedème
  OEdème - Aucun: 63
  OEdème - Léger ou modéré: 1
  OEdème - Sévère: 0
ecchymose
  Ecchymose - Aucune: 42
  Ecchymose - Légère ou modérée: 22
  Ecchymose - Sévère: 0
